Where only a bound is given, the exact number is not on record here.

The test system of the first experiment is Lox-IMVI melanoma cell line. Kind of experiment: Lox-IMVI anti-proliferative assay (growth inhibition, Cell Titer-Glo). The format is cell-based, human. The note with it: Homo sapiens; IC50 activity level in the cell-based Lox-IMVI anti-proliferative assay; read-out: Activity. An outline of the steps:
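Growth inhibition is assessed over 72 h in RPMI + 10% FBS at 0.2% DMSO, with ATP-based luminescence used as the viability measure. IC50 is fitted from normalized dose-response data.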
As to `NC(=O)[C@H]1CC[C@@H](n2c(Nc3c(Cl)cc(Cl)cc3Cl)nc3cnc(N[C@H]4CC[C@H](O)CC4)nc32)CC1` [Example 78, (1s,4s)-4-(2-((1r,4r)-4-hydroxycyclohexylamino)-8-(2,4,6-trichlorophenylamino)-9H-purin-9-yl)cyclohexanecarboxamide], the IC50 is above 1000 nM. Still for that read-out and setting: in the case of `N#Cc1cc(F)c(Nc2nc3cnc(NC4CCOCC4)nc3n2[C@H]2CC[C@@H](C(N)=O)CC2)c(F)c1` [Example 309, (1s,4s)-4-(8-(4-cyano-2,6-difluorophenylamino)-2-(tetrahydro-2H-pyran-4-ylamino)-9H-purin-9-yl)cyclohexanecarboxamide] it was below 250 nM; in that of `C[C@@H]1CC[C@@H](Nc2ncc3nc(Nc4ccc(Cl)cc4Cl)n([C@H]4CC[C@@H](C(N)=O)CC4)c3n2)C[C@H]1O` [Example 391, (1S,4s)-4-(8-(2,4-dichlorophenylamino)-2-((1R,3R,4R)-3-hydroxy-4-methylcyclohexylamino)-9H-purin-9-yl)cyclohexanecarboxamide], above 1000 nM; in that of `NC(=O)[C@H]1CC[C@@H](n2c(Nc3cccc(Cl)c3F)nc3cnc(NC4COCC4O)nc32)CC1` (stereo partly drawn) [Example 192, (1s,4s)-4-(8-(3-chloro-2-fluorophenylamino)-2-(4-hydroxytetrahydrofuran-3-ylamino)-9H-purin-9-yl)cyclohexanecarboxamide], above 1000 nM.

For the molecule `N#Cc1ccc(Nc2nc3cnc(NC4CCOCC4)nc3n2[C@H]2CC[C@@H](C(N)=O)CC2)c(Cl)c1` [Example 248, (1s,4s)-4-(8-(2-chloro-4-cyanophenylamino)-2-(tetrahydro-2H-pyran-4-ylamino)-9H-purin-9-yl)cyclohexanecarboxamide], the IC50 lay within 500 to 1000 nM.

For the molecule `C[C@@H]1CC[C@@H](Nc2ncc3nc(Nc4c(F)ccc(Cl)c4F)n([C@H]4CC[C@@H](C(N)=O)CC4)c3n2)C[C@H]1O` [Example 358, (1S,4s)-4-(8-(3-chloro-2,6-difluorophenylamino)-2-((1R,3R,4R)-3-hydroxy-4-methylcyclohexylamino)-9H-purin-9-yl)cyclohexanecarboxamide], the IC50 is above 1000 nM.

On to `NC(=O)[C@H]1CC[C@@H](n2c(Nc3c(F)cc(F)cc3F)nc3cnc(N[C@@H]4CC[C@H](O)C4)nc32)CC1` [Example 332, (1S,4s)-4-(2-((1R,3S)-3-hydroxycyclopentylamino)-8-(2,4,6-trifluorophenylamino)-9H-purin-9-yl)cyclohexanecarboxamide], for which the IC50 is above 1000 nM. Same read-out and setting: in the case of `C[C@@H]1CC[C@@H](Nc2ncc3nc(Nc4c(Cl)cccc4Cl)n([C@H]4CC[C@@H](C(N)=O)CC4)c3n2)C[C@H]1O` [Example 345, (1S,4s)-4-(8-(2,6-dichlorophenylamino)-2-((1R,3R,4R)-3-hydroxy-4-methylcyclohexylamino)-9H-purin-9-yl)cyclohexanecarboxamide] it was above 1000 nM. The same measure, in the same setting: in the case of `NC(=O)[C@H]1CC[C@@H](n2c(Nc3c(Cl)cccc3Cl)nc3cnc(N[C@@H]4CCC[C@H]4O)nc32)CC1` [Example 253, (1S,4s)-4-(8-(2,6-dichlorophenylamino)-2-((1R,2R)-2-hydroxycyclopentylamino)-9H-purin-9-yl)cyclohexanecarboxamide] it was above 1000 nM; in that of `COc1ccc(Nc2nc3cnc(NC4CCOCC4)nc3n2[C@H]2CC[C@@H](C(N)=O)CC2)c(F)c1F` [Example 380, (1s,4s)-4-(8-(2,3-difluoro-4-methoxyphenylamino)-2-(tetrahydro-2H-pyran-4-ylamino)-9H-purin-9-yl)cyclohexanecarboxamide], above 1000 nM. Regarding `NC(=O)[C@H]1CC[C@@H](n2c(Nc3cccc(Cl)c3F)nc3cnc(N[C@@H]4CCC[C@H]4O)nc32)CC1` [Example 263, (1S,4s)-4-(8-(3-chloro-2-fluorophenylamino)-2-((1R,2R)-2-hydroxycyclopentylamino)-9H-purin-9-yl)cyclohexanecarboxamide], the IC50 was above 1000 nM.

Take `NC(=O)[C@H]1CC[C@@H](n2c(Nc3c(F)cc(F)cc3Cl)nc3cnc(NC4COCC4O)nc32)CC1` (stereo partly drawn) [Example 179, (1s,4s)-4-(8-(2-chloro-4,6-difluorophenylamino)-2-(4-hydroxytetrahydrofuran-3-ylamino)-9H-purin-9-yl)cyclohexanecarboxamide]: the IC50 was above 1000 nM. The same measure, in the same setting: next, `NC(=O)[C@H]1CC[C@@H](n2c(Nc3ccc(F)c(Cl)c3Cl)nc3cnc(NC4CCOCC4)nc32)CC1` [Example 81, (1s,4s)-4-(8-(2,3-dichloro-4-fluorophenylamino)-2-(tetrahydro-2H-pyran-4-ylamino)-9H-purin-9-yl)cyclohexanecarboxamide]: above 1000 nM.

The experiment is the same for the next values; noted with them: Homo sapiens; Lox-IMVI anti-proliferative assay, IC50 activity level; read-out: Activity.
In the case of `COC(=O)N1CCC[C@@H](Nc2ncc3nc(Nc4c(F)cc(F)cc4Cl)n([C@H]4CC[C@@H](C(N)=O)CC4)c3n2)C1` [Example 407, (R)-methyl 3-(9-((1s,4S)-4-carbamoylcyclohexyl)-8-(2-chloro-4,6-difluorophenylamino)-9H-purin-2-ylamino)piperidine-1-carboxylate], the IC50 was above 1000 nM.

Take `NC(=O)[C@H]1CC[C@@H](n2c(Nc3c(F)cc(Cl)cc3Cl)nc3cnc(N[C@@H]4CCC[C@@H](O)C4)nc32)CC1` [Example 422, (1S,4s)-4-(8-(2,4-dichloro-6-fluorophenylamino)-2-((1R,3R)-3-hydroxycyclohexylamino)-9H-purin-9-yl)cyclohexanecarboxamide]: the IC50 was 500 to 1000 nM. Same read-out and setting: next, `C[C@]1(C(N)=O)CC[C@H](n2c(Nc3c(F)cc(Cl)cc3Cl)nc3cnc(NC4CCC(F)(F)CC4)nc32)CC1` [Example 478, (1r,4r)-4-(8-(2,4-dichloro-6-fluorophenylamino)-2-(4,4-difluorocyclohexylamino)-9H-purin-9-yl)-1-methylcyclohexanecarboxamide]: above 1000 nM. Still for that read-out and setting: next, `C[C@]1(C(N)=O)CC[C@@H](n2c(Nc3c(F)cc(Cl)cc3Cl)nc3cnc(NC4CCC(F)(F)CC4)nc32)CC1` [Example 528, (1s,4s)-4-(8-(2,4-dichloro-6-fluorophenylamino)-2-(4,4-difluorocyclohexylamino)-9H-purin-9-yl)-1-methylcyclohexanecarboxamide]: below 250 nM; `C[C@@H]1COCC[C@@H]1Nc1ncc2nc(Nc3c(Cl)cc(C#N)cc3Cl)n([C@H]3CC[C@@H](C(N)=O)CC3)c2n1` [Example 498, (1R,4s)-4-(8-(2,6-dichloro-4-cyanophenylamino)-2-((3S,4S)-3-methyltetrahydro-2H-pyran-4-ylamino)-9H-purin-9-yl)cyclohexanecarboxamide]: 250 to 500 nM.

The same experiment, now with this note: Homo sapiens; Lox-IMVI melanoma cell line, anti-proliferative assay; read-out: Activity (IC50 activity level).
Regarding `C[C@]1(C(N)=O)CC[C@@H](n2c(Nc3c(Cl)cc(F)cc3Cl)nc3cnc(N[C@H]4CC[C@H](O)C4)nc32)CC1` [Example 647, (1R,4s)-4-(8-(2,6-dichloro-4-fluorophenylamino)-2-((1S,3S)-3-hydroxycyclopentylamino)-9H-purin-9-yl)-1-methylcyclohexanecarboxamide], the IC50 is 500 to 1000 nM. In the case of `N#Cc1cc(F)c(Nc2nc3cnc(N[C@@H]4CCCN(c5ccccc5)C4)nc3n2[C@H]2CC[C@@H](C(N)=O)CC2)c(F)c1` [Example 745, (1S,4s)-4-(8-(4-cyano-2,6-difluorophenylamino)-2-((R)-1-phenylpiperidin-3-ylamino)-9H-purin-9-yl)cyclohexanecarboxamide], the IC50 was above 1000 nM.

`N#Cc1cc(F)c(Nc2nc3cnc(N[C@@H]4CCC(O)C4)nc3n2[C@H]2CC[C@@H](C(N)=O)CC2)c(Cl)c1` (stereo partly drawn) [Example 682, (1S,4s)-4-(8-(2-chloro-4-cyano-6-fluorophenylamino)-2-((1R,3R)-3-hydroxycyclopentylamino)-9H-purin-9-yl)cyclohexanecarboxamide]: the IC50 is below 250 nM.

Take `C[C@]1(C(N)=O)CC[C@@H](n2c(Nc3c(Cl)cc(Cl)cc3Cl)nc3cnc(N[C@H]4CCC[C@H](O)C4)nc32)CC1` [Example 611, (1R,4s)-4-(2-((1S,3S)-3-hydroxycyclohexylamino)-8-(2,4,6-trichlorophenylamino)-9H-purin-9-yl)-1-methylcyclohexanecarboxamide]: the IC50 was below 250 nM. Same read-out and setting: in the case of `CC(C)N1CCC[C@@H](Nc2ncc3nc(Nc4c(F)cc(Cl)cc4F)n([C@H]4CC[C@@H](C(N)=O)CC4)c3n2)C1` [Example 740, (1S,4s)-4-(8-(4-chloro-2,6-difluorophenylamino)-2-((R)-1-isopropylpiperidin-3-ylamino)-9H-purin-9-yl)cyclohexanecarboxamide] it was above 1000 nM; in that of `C[C@]1(C(N)=O)CC[C@@H](n2c(Nc3c(F)cc(C#N)cc3Cl)nc3cnc(N[C@H]4CCC[C@@H](O)C4)nc32)CC1` [Example 633, (1R,4s)-4-(8-(2-chloro-4-cyano-6-fluorophenylamino)-2-((1S,3R)-3-hydroxycyclohexylamino)-9H-purin-9-yl)-1-methylcyclohexanecarboxamide], 500 to 1000 nM.

`NC(=O)[C@H]1CC[C@@H](n2c(Nc3c(F)cc(F)cc3Cl)nc3cnc(NC4CCC(c5ncno5)CC4)nc32)CC1` (stereo partly drawn) [Example 677, (1s,4s)-4-(2-(4-(1,2,4-oxadiazol-5-yl)cyclohexylamino)-8-(2-chloro-4,6-difluorophenylamino)-9H-purin-9-yl)cyclohexanecarboxamide]: the IC50 is above 1000 nM. Still for that read-out and setting: in the case of `CS(=O)(=O)C1CC(Nc2ncc3nc(Nc4c(F)cc(Cl)cc4Cl)n([C@H]4CC[C@@H](C(N)=O)CC4)c3n2)C1` (stereo partly drawn) [Example 731, (1s,4s)-4-(8-(2,4-dichloro-6-fluorophenylamino)-2-(3-(methylsulfonyl)cyclobutylamino)-9H-purin-9-yl)cyclohexanecarboxamide] it was above 1000 nM; in that of `CC(C)OC(=O)N1CCC[C@@H](Nc2ncc3nc(Nc4c(Cl)cc(F)cc4Cl)n([C@H]4CC[C@@H](C(N)=O)CC4)c3n2)C1` [Example 775, (R)-isopropyl 3-(9-((1s,4S)-4-carbamoylcyclohexyl)-8-(2,6-dichloro-4-fluorophenylamino)-9H-purin-2-ylamino)piperidine-1-carboxylate], above 1000 nM.

(Values after patent US11590139B2, “Substituted aminopurine compounds, compositions thereof, and methods of treatment therewith” (Signal Pharmaceuticals, LLC, priority 2014, dated 2023).)
